Here are results for ten molecules from patent US10973820B2, “Compounds for treatment of diseases related to DUX4 expression” (Facio Intellectual Property B.V., priority 2017, dated 2021).

By IC50 is commonly meant the concentration at which inhibition is half-maximal. What is called EC50 is the midpoint of the concentration-response curve.

Molecules are shown by their SMILES. Where two headings read alike, the source gives them in different places.

One assay deals with p38 (Homo sapiens, UniProt Q16539). Put plainly: inhibition of p38 by CK1 inhibitors. Conditions: p38α. The assay is classed as biochemical.
The subject of assay [1] is DUX4. Put plainly: DUX4 repression, high-content immunocytochemistry assay in primary FSHD myotubes. The assay is classed as cell-based, human. Conditions: for EC50: Homo sapiens, Myotube, read-out: EC50 DUX4. From the text: A quantitative assay readout was developed based on script-based image analysis. […] To analyse the images, an automated script was developed, enabling the detection of nuclei, myotube borders and DUX4 signals, with the script also detecting artefacts to reduce false positive signals. The script enabled multiple validated readouts including the number of DUX4 positive nuclei and nuclei clusters, the fusion index, myotube area, myotube width and myotube skeleton length (see FIG. 2). Additionally, the total nuclei count was included as a measure of cell loss or compound toxicity.
A compound library containing approximately 5000 annotated compounds was screened in the high-content assay. For this purpose, primary myoblasts were seeded in 384 well plates after which the growth medium was replaced with differentiation medium. After 3 days of differentiation, cells were treated with library compounds (in duplicate on different screening plates) for 15 h, after which they were fixed and stained with antibodies against DUX4, antibodies against myosin heavy chain (MHC), and with DAPI (4′,6-diamidino-2-phenylindole). Script-based analysis provided readouts for DUX4 expression (count of DUX4-positive nuclei or DUX4 intensity) and for potential toxicity (fusion index and nuclei count).
Compounds were incubated with primary FSHD cells for 15 hours, as indicated by the arrow in FIG. 4A.
Compounds are administered either 15 h before fixation, resembling the original screening protocol, or 72 h before fixation (grey arrow). In the latter case, compounds are present during the whole differentiation process.

The target of another assay is CK1 α (Homo sapiens, UniProt P48729). Put plainly: inhibition of CK1 α by CK1 inhibitors. The assay is classed as biochemical. From the text: IC50 values for CK1 can be determined using any method known in the art, for example as described in WO2011051858, WO2015119579, EP2949651, or US2005/0131012. Suitable assays can use a peptide substrate and a readout method, for example using the Kinase-Glo assay (Promega, part # V672A).

The target of another assay is CK1 δ (Homo sapiens, UniProt P48730). Put plainly: inhibition of CK1 δ by CK1 inhibitors. It counts as biochemical. From the text: (§1) Suitable assays can use a peptide substrate and a readout method, for example using the Kinase-Glo assay (Promega, part # V672A).
In a further assay the target is CK1 ε (Homo sapiens, UniProt P49674). Put plainly: inhibition of CK1 ε by CK1 inhibitors. The assay is classed as biochemical.
Excerpt: as §1

Assay [2] deals with DUX4. Conditions: immortalised differentiated myotube cultures; cited from earlier work.
The subject of the next assay is pancreatic tumor cell. Conditions: in vitro and in vivo; cited from earlier work.
[3] abbreviates: primary FSHD cells, compound incubation 15 hours.

Chain of CK1 α (P48729 whole entry): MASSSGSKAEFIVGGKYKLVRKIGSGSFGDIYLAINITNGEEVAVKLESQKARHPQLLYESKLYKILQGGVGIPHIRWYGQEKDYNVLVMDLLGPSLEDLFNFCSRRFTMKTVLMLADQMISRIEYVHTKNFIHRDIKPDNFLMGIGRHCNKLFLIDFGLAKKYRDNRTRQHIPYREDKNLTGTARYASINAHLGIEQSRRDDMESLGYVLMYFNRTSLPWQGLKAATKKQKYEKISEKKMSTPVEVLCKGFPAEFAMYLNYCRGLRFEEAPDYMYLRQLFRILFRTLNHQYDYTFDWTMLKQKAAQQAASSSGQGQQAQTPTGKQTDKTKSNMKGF
Chain of CK1 δ (P48730 whole entry): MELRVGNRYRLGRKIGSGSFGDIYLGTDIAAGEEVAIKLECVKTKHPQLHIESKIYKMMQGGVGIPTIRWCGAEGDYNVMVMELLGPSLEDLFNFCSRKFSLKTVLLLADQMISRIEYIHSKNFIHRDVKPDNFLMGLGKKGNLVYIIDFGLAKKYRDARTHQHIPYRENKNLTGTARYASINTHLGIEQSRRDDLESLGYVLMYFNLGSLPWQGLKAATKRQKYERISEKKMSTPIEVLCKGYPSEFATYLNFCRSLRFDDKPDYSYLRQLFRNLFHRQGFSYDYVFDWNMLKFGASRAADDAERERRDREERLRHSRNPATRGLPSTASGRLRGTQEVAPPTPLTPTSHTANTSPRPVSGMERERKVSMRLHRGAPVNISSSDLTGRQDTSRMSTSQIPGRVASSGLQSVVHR
Chain of p38 (Q16539 whole entry, the tested form may be a part): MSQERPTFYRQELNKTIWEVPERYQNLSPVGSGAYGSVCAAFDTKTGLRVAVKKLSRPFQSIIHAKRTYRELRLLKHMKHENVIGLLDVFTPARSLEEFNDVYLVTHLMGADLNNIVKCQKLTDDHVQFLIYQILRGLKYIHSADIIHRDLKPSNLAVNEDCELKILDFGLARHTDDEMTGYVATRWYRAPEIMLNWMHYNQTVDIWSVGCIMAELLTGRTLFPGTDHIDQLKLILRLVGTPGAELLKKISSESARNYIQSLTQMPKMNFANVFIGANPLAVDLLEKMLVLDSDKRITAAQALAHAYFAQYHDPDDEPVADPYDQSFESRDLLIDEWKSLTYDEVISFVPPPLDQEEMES
Chain of CK1 ε (P49674 whole entry): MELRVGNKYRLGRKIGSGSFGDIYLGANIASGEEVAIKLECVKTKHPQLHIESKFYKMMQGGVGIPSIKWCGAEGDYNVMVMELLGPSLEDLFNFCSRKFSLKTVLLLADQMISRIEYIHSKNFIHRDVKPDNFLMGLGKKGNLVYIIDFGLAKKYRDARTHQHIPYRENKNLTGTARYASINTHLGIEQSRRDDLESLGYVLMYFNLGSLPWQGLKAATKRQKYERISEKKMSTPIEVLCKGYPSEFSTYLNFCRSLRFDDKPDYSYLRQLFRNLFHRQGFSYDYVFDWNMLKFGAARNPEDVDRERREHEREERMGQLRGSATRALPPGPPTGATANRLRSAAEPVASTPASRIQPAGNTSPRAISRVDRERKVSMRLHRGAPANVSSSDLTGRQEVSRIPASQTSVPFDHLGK

For the molecule `Fc1cccc(-n2cnc3c(NCc4nc5ccc(F)c(F)c5[nH]4)nc(N4CCOCC4)nc32)c1` [SR-3029, reference compound], the concentration for half-maximal inhibition (IC50) at p38 and against CK1 α was more than 10000 nM in each case. Further, the EC50 with DUX4 [1] (15 h) turned out to be 50 nM.
Take `Fc1ccc(-c2nc3ccc(N4CCNCC4)nn3c2-c2ccncc2)cc1` [Compound H]: the IC50 was 25 nM at p38, 22 nM on CK1 δ, 16 nM on CK1 ε and 33 nM on CK1 α. Further, in the assay with DUX4 [1] (setting [3]), the concentration for a half-maximal effect (EC50) amounted to 10 nM.
For `CC1(C)CN(c2ccc3nc(-c4ccc(F)cc4)c(-c4ccncc4)n3n2)CCN1` [Compound A] the same measures were 13 nM, 19 nM, 12 nM, 30 nM and 50 nM.
As for `CN1Cc2nccc(-c3cn(C)nc3-c3ccc(F)cc3)c2C1=O` [Compound E], the IC50 against p38 was 1110 nM; on CK1 α, 592 nM. Moreover, the EC50 in the assay with DUX4 [1] (15 h) came to 1890 nM.
`Nc1nccc(-c2c(-c3ccc(F)cc3)ncn2C2CCN(Cc3ccon3)CC2)n1` [PF-5006739, reference compound]: the IC50 against p38 turned out to be 74 nM; on CK1 δ, 20 nM; against CK1 ε it was 27 nM; against CK1 α it was 123 nM. For the same molecule, the EC50 with DUX4 [1] (setting [3]) came to 820 nM.
`Cn1cc(-c2ccnc3c2C(=O)N(C2CCOCC2)C3)c(-c2ccc(F)cc2)n1` [Compound F]: the IC50 against p38 stood at 677 nM; against CK1 δ, 18 nM; against CK1 ε, 72 nM; on CK1 α, 561 nM. In addition, the EC50 with DUX4 [1] (setting [3]) worked out at 2590 nM.
Regarding `COc1cc(OC)c2c(=O)[nH]c(-c3cc(C)c(OCCO)c(C)c3)nc2c1` [RVX-208, reference compound], the “effect on DUX4 expression” value in the assay with DUX4 [1] (irrespective of treatment time (15 h or 72 h)) is “did not show any effect on DUX4 expression”. The “expression of DUX4” value in the assay on DUX4 [2] is on record as “can inhibit the expression of DUX4”.
`Cn1cc(-c2ccnc3c2C(=O)OC3)c(-c2ccc(F)cc2)n1` [Compound D]: the concentration for half-maximal inhibition (IC50) at p38 was found to be 569 nM; at CK1 δ it was 33.1 nM; against CK1 ε, 51.6 nM; at CK1 α it was 644 nM. Also, the EC50 in the assay on DUX4 [1] (setting [3]) is 1410 nM.
In the case of `COc1cc(OC)c(C=C2C(O)=Nc3ccccc32)c(OC)c1` [IC261], the “pancreatic tumor cell growth” value in the assay on pancreatic tumor cell is “reduces pancreatic tumor cell growth”.
Turning to `Nc1nccc(-c2c(-c3ccc(F)cc3)ncn2C2CCCCC2)n1` [PF-670462, reference compound], the IC50 on p38 is 32 nM; on CK1 α, 320 nM. The EC50 in the assay on DUX4 [1] (setting [3]) is 470 nM.
